From patent US11471508B2, “HMGB1 antagonist treatment of diabetic peripheral neuropathy” (THE FEINSTEIN INSTITUTES FOR MEDICAL RESEARCH, priority 2019, dated 2022)
“Also recorded” adds a separate entry of the source. Where two headings read alike, the source gives them in different places.

Tests used:
[1] = system: HMGB1-induced TNF release; test: HMGB1-induced TNF release in human primary macrophages (ELISA); assay type: cell-based; settings: FIG. 17A
Procedure: For all of these studies, TNF released was measured using an ELISA.

[2] = system: PAMPs (LPS, PGN, AGE and Poly I:C)-induced TNF release; test: PAMPs-induced TNF release in human macrophages; assay type: cell-based; settings: LPS 4 ng/ml, poly I:C 50 μg/ml, PGN 5 μg/ml, S100A12 50 μg/ml; 16 hours
Procedure: TNF released was measured.

[3] = system: DAMPs (CIRP, SAA, PEDF, HSP 70, HSP90, H2A)-induced TNF secretion; test: DAMPs-induced TNF secretion in human macrophages; assay type: cell-based; settings: 16 hours
[4] = Degradation in rat plasma and whole blood; assay type: in vitro ADME
[5] = Stability under acidic conditions (pH=2), LC-MS; assay type: physicochemical; settings: pH=2, two hours
Oral bioavailability = settings: in vivo
[6] = assay type: in vivo; settings: single-dose, rats
[7] = system: APAP-induced liver injury; test: APAP-induced liver injury model; assay type: in vivo, mouse
[8] = system: liver ischemia and reperfusion injury; test: Warm liver ischemia and reperfusion (I/R) model; assay type: in vivo, mouse; settings: 6 hours after reperfusion, vs vehicle control
Procedure: […] (SEQ ID NO: 1) (or vehicle control) was administered intraperitoneally at 500 μg/mouse at the time of I/R surgery and euthanized 6 hours later. Serum levels of ALT and AST were reduced in […] (SEQ ID NO: 1)-treated group vs. vehicle controls. *: P<0.05 vs. I/R group. n=5-7 mice/group. […] (SEQ ID NO: 1)-treated mice as compared to vehicle control (neutrophil infiltration, arrow). n=3-5 mice per group.

[9] = system: CCI-induced neuropathic pain; test: Chronic constriction injury of the sciatic nerve (CCI) neuropathic pain model; assay type: in vivo, rat
STZ-induced diabetes = test: STZ-induced diabetes; assay type: in vivo; settings: repetitive administration, 500 μg/mouse
Procedure: In Example 21, the effect of selective HMGB1-TLR4/MD-2 inhibition in STZ-induced diabetes was evaluated. Increased levels of HMGB1 have been reported in both diabetic patients and animal models. For example, elevated expression of HMGB1 is found in the retinas of diabetic patients and rat models with retinopathy. ([…]., Upregulation of RAGE and its ligands in proliferative retinal disease, Experimental Eye Research, 2006; 82(5): 807-815; Yu Y., The role of high mobility group box 1 (HMGB-1) in the diabetic retinopathy inflammation and apoptosis, International Journal of Clinical and Experimental Pathology, 2015; 8(6): 6807). […] (Dasu M. […] Based on this literature, tests were conducted on the effects of […] (SEQ ID NO: 1) and […] on STZ-induced diabetes in mice. Mice were administered repetitive administration of […] (500 μg/mouse). […] Repetitive administration of […] was therefore shown to be beneficial in STZ-induced diabetes. […] (*: P<0.05 vs. PBS group. N=6-8 mice per group).

[10] = male, Sprague-Dawley, rat, in vivo
in vivo = settings: male, Sprague-Dawley, rat, iv, 1 mg/kg, AUCtest
[11] = Pharmacokinetics after intravenous administration at 1 mg/kg in male Sprague-Dawley rats (LC-MS); settings: Mean
[12] = system: HMGB1-induced TNF release; settings: cited from earlier work
[13] = system: TNF release stimulated by LPS, PGN, Poly I:C, CpG DNA or S100 A12; settings: cited from earlier work
[14] = system: APAP-induced liver injury; settings: cited from earlier work
[15] = system: liver ischemia and reperfusion injury; settings: cited from earlier work

NC(=O)N(CCC(=O)O)NC(=O)[C@H](CO)NC(=O)[C@H](CO)NC(=O)N(N)Cc1ccccc1 [K883]
HMGB1-induced TNF secretion [1]: causes inhibition
PAMPs-induced TNF release [2]: failed to inhibit other PAMPS; also recorded: does not inhibit other PAMPs
TNF secretion induced by other DAMPs [3]: is not inhibited
degradation after incubating 120 minutes [4]: not degraded
stability to acid hydrolysis [5]: resistant to acid hydrolysis
oral bioavailability (Oral bioavailability): low
tolerability [6]: well-tolerated
liver necrosis (H&E) ([7]; APAP 350 mg/kg, K883 50 μg/mouse IP at 2 and 7 hours, 24 hours post-APAP, vs vehicle): reduced liver necrosis
mice surviving 2 weeks post-APAP ([7]; APAP 400 mg/kg, 50 μg/mouse IP once-a-day for 5 days from 2 hours post-APAP, control group 8): 14 mice out of 15
liver inflammation (H&E, neutrophil infiltration) [8]: reduced inflammation
Paw Withdrawal Latency (sec), CCI ([9]; 0 hours post treatment, K883 800 μg/rat or 2g7 300 μg/rat IP): 4.1 ± 1.0 s
mechanical and thermal hypersensitivity ([9]; 800 μg/rat IP once a day for 3 days, Hargreaves, von Frey): ameliorated both mechanical and thermal hypersensitivity; also recorded: improved CCI-induced thermal and mechanical hypersensitivity
tolerance to repeated treatment ([9]; 800 μg/rat IP once daily for three days, 2 weeks): did not develop tolerance
Paw Withdrawal Latency (sec), CCI ([9]; 2 hours post treatment): 4.3 ± 1.2 s
Paw Withdrawal Latency (sec), CCI ([9]; 6 hours post treatment): 6.0 ± 0.6 s
Paw Withdrawal Latency (sec), CCI ([9]; 24 hours post treatment): 5.0 ± 0.5 s
thermal hypersensitivity ([9]; CCI rats): ameliorated the thermal hypersensitivity
CCI-induced CXCL1 and TNF expression (DRGs) ([9]; DRGs): reduce CCI-induced CSCL1 and TNF expression
CCI-induced CXCL1, TNF and IL-1β expression (spine) ([9]; spine): reduce CCI-induced CSCL1, TNF and IL-1β expression
insulitis (STZ-induced diabetes): reduces insulitis
weight gain (STZ-induced diabetes): improves weight gain
hyperglycemia (STZ-induced diabetes; vs AI5779 or PBS controls): delays hyperglycemia
Plasma concentration ([10]; 0.5 hr): 2500 ng/mL
Plasma concentration ([10]; 1 hr): 1300 ng/mL
Plasma concentration ([10]; 2 hr): 130 ng/mL
Plasma concentration ([10]; 6 hr): 5.10 ng/mL
Plasma concentration ([10]; 8 hr): 2.01 ng/mL
AUC (in vivo): 3770 ng·h/mL
Plasma concentration ([11]; 0.50 hr): 2913 ng/mL
Plasma concentration ([11]; 1.0 hr): 1091 ng/mL
Plasma concentration ([11]; 2.0 hr): 135 ng/mL
Plasma concentration ([11]; 4.0 hr): 16.6 ng/mL
Plasma concentration ([11]; 8.0 hr): 1.52 ng/mL

NC(=O)[C@H](CCC(=O)O)NC(=O)[C@H](CO)NC(=O)[C@H](CO)NC(=O)[C@@H](N)Cc1ccccc1 [P5779]
HMGB1-induced TNF release from macrophages [12]: inhibit HMGB1-induced TNF release from macrophages in a concentration-dependent manner
TNF release in macrophages stimulated by LPS, PGN, Poly I:C, CpG DNA or S100 A12 [13]: not suppress TNF release
serum ALT ([14]; 500 ugs/mouse): significant reductions in ALT
liver necrosis (H&E) ([14]; APAP 350 mg/kg, P5779 50 or 500 μg/mouse IP at 2 and 7 hours, vs scrambled control peptide): reduced liver necrosis
percent survival (2 weeks) post-APAP ([14]; APAP 400 mg/kg, 500 μg/mouse IP once a day for 5 days): significantly improved
serum levels of ALT and AST ([15]; 500 μg/mouse IP at time of I/R surgery, 6 hours): reduced
liver inflammation (H&E, neutrophil infiltration) ([15]; 6 hours after reperfusion, vs vehicle control): reduced inflammation
